Test results published in publication PMC5218480 (PLoS ONE, 2017).

Test system: MV-4-11 cells
Experiment: Gene expression microarray analysis (Affymetrix PrimeView) and GSEA
Assay type: cell-based, human
Design: RFU PODN (11730768_x_at) / Fold change /veh PODN (11730768_x_at) / RFU LINC00158 (11744669_a_at) / Fold change /veh LINC00158 (11744669_a_at) / RFU DUSP10 (11751237_a_at) / Fold change /veh DUSP10 (11751237_a_at) / RFU ID3 (11757404_x_at) / Fold change /veh ID3 (11757404_x_at) / RFU PLEKHG5 (11737974_s_at) / Fold change /veh PLEKHG5 (11737974_s_at) / RFU LRRC4B (11730491_at) / Fold change /veh LRRC4B (11730491_at) / RFU GIMAP4 (11747438_a_at) / Fold change /veh GIMAP4 (11747438_a_at) / RFU KRT8 (11758183_x_at) / Fold change /veh KRT8 (11758183_x_at) / RFU CNN1 (11734310_a_at) / Fold change /veh CNN1 (11734310_a_at) / RFU VPS37D (11726825_at) / Fold change /veh VPS37D (11726825_at) / RFU C10orf10 (11716522_x_at) / Fold change /veh C10orf10 (11716522_x_at) / RFU KIR2DL2 /// KIR2DL4 /// KIR2DL5A /// KIR2DL5B /// KIR2DS1 /// KIR2DS2 /// KIR2DS3 /// KIR2DS4 /// KIR3DL3 /// KIR3DL3 /// KIR3DS1 (11738374_at) / Fold change /veh KIR2DL2 /// KIR2DL4 /// KIR2DL5A /// KIR2DL5B /// KIR2DS1 /// KIR2DS2 /// KIR2DS3 /// KIR2DS4 /// KIR3DL3 /// KIR3DL3 /// KIR3DS1 (11738374_at) / RFU C1QL1 (11718748_at) / Fold change /veh C1QL1 (11718748_at) / RFU TMPRSS4 (11747572_a_at) / Fold change /veh TMPRSS4 (11747572_a_at) / RFU HAMP (11756126_x_at) / Fold change /veh HAMP (11756126_x_at) / RFU RNFT2 (11725882_a_at) / Fold change /veh RNFT2 (11725882_a_at) / RFU NR4A2 (11747474_a_at) / Fold change /veh NR4A2 (11747474_a_at) / RFU ABCC12 (11746883_a_at) / Fold change /veh ABCC12 (11746883_a_at) / RFU TMEM136 (11760407_x_at) / Fold change /veh TMEM136 (11760407_x_at) / RFU CLDN22 /// WWC2 (11732394_at) / Fold change /veh CLDN22 /// WWC2 (11732394_at) / RFU HLA-DPB1 (11760878_x_at) / Fold change /veh HLA-DPB1 (11760878_x_at) / RFU SPINT1 (11716480_a_at) / Fold change /veh SPINT1 (11716480_a_at) / RFU GAP43 (11754022_s_at) / Fold change /veh GAP43 (11754022_s_at) / RFU A4GNT (11735810_at) / Fold change /veh A4GNT (11735810_at) / RFU PRB3 (11715151_x_at) / Fold change /veh PRB3 (11715151_x_at) / RFU TUBB4B (11761932_at) / Fold change /veh TUBB4B (11761932_at) / RFU CAPN14 (11732068_a_at) / Fold change /veh CAPN14 (11732068_a_at) / RFU TMCC2 (11721928_a_at) / Fold change /veh TMCC2 (11721928_a_at) / RFU IRGQ (11745062_a_at) / Fold change /veh IRGQ (11745062_a_at) / RFU FAM174B (11720279_a_at) / Fold change /veh FAM174B (11720279_a_at) / RFU TMPRSS4 (11748680_a_at) / Fold change /veh TMPRSS4 (11748680_a_at) / RFU FAM212B (11763350_a_at) / Fold change /veh FAM212B (11763350_a_at) / RFU PLEKHG5 (11743358_a_at) / Fold change /veh PLEKHG5 (11743358_a_at) / RFU ZSCAN30 (11745921_a_at) / Fold change /veh ZSCAN30 (11745921_a_at) / RFU CMKLR1 (11741424_a_at) / Fold change /veh CMKLR1 (11741424_a_at) / RFU LOC101060620 /// MAPK8IP1 (11723275_at) / Fold change /veh LOC101060620 /// MAPK8IP1 (11723275_at) / RFU SPTSSB (11747773_x_at) / Fold change /veh SPTSSB (11747773_x_at) / RFU PRSS12 (11739890_at) / Fold change /veh PRSS12 (11739890_at) / RFU BIN1 (11741810_x_at) / Fold change /veh BIN1 (11741810_x_at) / RFU WNT11 (11732464_a_at) / Fold change /veh WNT11 (11732464_a_at) / RFU C10orf10 (11716521_a_at) / Fold change /veh C10orf10 (11716521_a_at) / RFU C5orf56 (11738089_at) / Fold change /veh C5orf56 (11738089_at) / RFU CYB561 (11721691_x_at) / Fold change /veh CYB561 (11721691_x_at) / RFU ANKRD19P (11752326_a_at) / Fold change /veh ANKRD19P (11752326_a_at) / RFU OR2T12 /// OR2T33 /// OR2T8 (11738714_s_at) / Fold change /veh OR2T12 /// OR2T33 /// OR2T8 (11738714_s_at) / RFU VCAN (11748164_a_at) / Fold change /veh VCAN (11748164_a_at) / RFU JSRP1 (11732532_at) / Fold change /veh JSRP1 (11732532_at) / RFU KRTAP10-11 (11738290_x_at) / Fold change /veh KRTAP10-11 (11738290_x_at) / RFU MYO3A (11730013_a_at) / Fold change /veh MYO3A (11730013_a_at) / RFU EBF3 (11725865_a_at) / Fold change /veh EBF3 (11725865_a_at) / RFU CAMK2N1 (11719241_x_at) / Fold change /veh CAMK2N1 (11719241_x_at) / RFU C5orf56 (11738088_a_at) / Fold change /veh C5orf56 (11738088_a_at) / RFU OLFML3 (11715873_a_at) / Fold change /veh OLFML3 (11715873_a_at) / RFU LOC100653217 /// NTM (11731650_a_at) / Fold change /veh LOC100653217 /// NTM (11731650_a_at) / RFU MAPK11 (11762145_a_at) / Fold change /veh MAPK11 (11762145_a_at) / RFU FIZ1 (11724087_x_at) / Fold change /veh FIZ1 (11724087_x_at) / RFU OASL (11726364_x_at) / Fold change /veh OASL (11726364_x_at) / RFU SOX15 (11748057_x_at) / Fold change /veh SOX15 (11748057_x_at) / RFU CD79A (11719716_a_at) / Fold change /veh CD79A (11719716_a_at) / RFU HIST1H1D (11736915_at) / Fold change /veh HIST1H1D (11736915_at) / RFU CASKIN2 (11723855_a_at) / Fold change /veh CASKIN2 (11723855_a_at) / RFU LOC730098 (11760151_x_at) / Fold change /veh LOC730098 (11760151_x_at) / RFU OR4N2 (11742367_at) / Fold change /veh OR4N2 (11742367_at) / RFU PRRT2 (11749266_a_at) / Fold change /veh PRRT2 (11749266_a_at) / RFU SNX32 (11753110_a_at) / Fold change /veh SNX32 (11753110_a_at) / RFU CDHR5 (11726645_a_at) / Fold change /veh CDHR5 (11726645_a_at) / RFU RCAN1 (11760418_a_at) / Fold change /veh RCAN1 (11760418_a_at) / RFU FAM167A (11723789_a_at) / Fold change /veh FAM167A (11723789_a_at) / RFU FAM26E (11764081_at) / Fold change /veh FAM26E (11764081_at) / RFU ISYNA1 (11749810_s_at) / Fold change /veh ISYNA1 (11749810_s_at) / RFU ACY1 (11761880_at) / Fold change /veh ACY1 (11761880_at) / RFU 11764098_at / Fold change /veh 11764098_at / RFU SAMD14 (11745864_x_at) / Fold change /veh SAMD14 (11745864_x_at) / RFU NPB (11741838_a_at) / Fold change /veh NPB (11741838_a_at) / RFU TMPRSS6 (11731388_a_at) / Fold change /veh TMPRSS6 (11731388_a_at) / RFU KRTAP10-2 (11738614_at) / Fold change /veh KRTAP10-2 (11738614_at) / RFU ARHGAP8 /// PRR5-ARHGAP8 (11727945_x_at) / Fold change /veh ARHGAP8 /// PRR5-ARHGAP8 (11727945_x_at) / RFU KRTAP5-7 /// NADSYN1 (11734609_at) / Fold change /veh KRTAP5-7 /// NADSYN1 (11734609_at) / RFU RASL12 (11751679_a_at) / Fold change /veh RASL12 (11751679_a_at) / RFU CDKN2B (11736163_a_at) / Fold change /veh CDKN2B (11736163_a_at) / RFU PRF1 (11729649_at) / Fold change /veh PRF1 (11729649_at) / RFU, ZNF638 /// ZNF638-IT1 / Fold change vs veh, ZNF638 /// ZNF638-IT1 / RFU, PANK3 / Fold change vs veh, PANK3 / RFU, SH3YL1 / Fold change vs veh, SH3YL1 / RFU, ZEB2 / Fold change vs veh, ZEB2 / RFU, NRIP1 / Fold change vs veh, NRIP1 / RFU, PTTG1IP / Fold change vs veh, PTTG1IP / RFU, CAPN2 / Fold change vs veh, CAPN2 / RFU, MED14 / Fold change vs veh, MED14 / RFU, SNORA58 / Fold change vs veh, SNORA58 / RFU, C1orf63 / Fold change vs veh, C1orf63 / RFU, LRRFIP1 / Fold change vs veh, LRRFIP1 / RFU, NDUFAF7 / Fold change vs veh, NDUFAF7 / RFU, SLC12A2 / Fold change vs veh, SLC12A2 / RFU, IBTK / Fold change vs veh, IBTK / RFU, ESF1 / Fold change vs veh, ESF1 / Fold change vs veh, TMEM50B / RFU, TAOK1 / Fold change vs veh, TAOK1 / RFU, ACBD3 / Fold change vs veh, ACBD3 / RFU, TMA16 / Fold change vs veh, TMA16 / RFU, RWDD3 / Fold change vs veh, RWDD3 / RFU, BCAT1 / Fold change vs veh, BCAT1 / RFU, EDEM3 / Fold change vs veh, EDEM3 / RFU, TMEM33 / Fold change vs veh, TMEM33 / RFU, WDR75 / Fold change vs veh, WDR75 / RFU, AHCTF1 / Fold change vs veh, AHCTF1 / RFU, TFRC / Fold change vs veh, TFRC / RFU, ZDHHC17 / Fold change vs veh, ZDHHC17 / RFU, NOM1 / Fold change vs veh, NOM1 / RFU, ARL8B / Fold change vs veh, ARL8B / RFU, ZBTB11 / Fold change vs veh, ZBTB11 / RFU, TAMM41 / Fold change vs veh, TAMM41 / RFU, KIAA1704 /// LOC100996395 / Fold change vs veh, KIAA1704 /// LOC100996395 / RFU, ING1 / Fold change vs veh, ING1 / RFU, TRMT61B / Fold change vs veh, TRMT61B / RFU, FUBP3 / Fold change vs veh, FUBP3 / RFU, TP53 / Fold change vs veh, TP53 / RFU, TNKS2 / Fold change vs veh, TNKS2 / RFU, ZFP14 / Fold change vs veh, ZFP14 / RFU, ACTR2 / Fold change vs veh, ACTR2 / RFU, PPP3R1 / Fold change vs veh, PPP3R1 / RFU, PIK3R1 / Fold change vs veh, PIK3R1 / RFU, HNRNPA1 / Fold change vs veh, HNRNPA1 / RFU, RNF170 / Fold change vs veh, RNF170 / RFU, ZNF28 / Fold change vs veh, ZNF28 / RFU, RNGTT / Fold change vs veh, RNGTT / RFU, OGT / Fold change vs veh, OGT / RFU, BRD1 / Fold change vs veh, BRD1 / RFU, MARS / Fold change vs veh, MARS / RFU, ZNF655 / Fold change vs veh, ZNF655 / RFU, FAHD1 / Fold change vs veh, FAHD1 / RFU, BDP1 / Fold change vs veh, BDP1 / RFU, LRRCC1 / Fold change vs veh, LRRCC1 / RFU, ARID1A / Fold change vs veh, ARID1A / RFU, ZNF146 / Fold change vs veh, ZNF146 / RFU, ZNF330 / Fold change vs veh, ZNF330 / RFU, GPN3 / Fold change vs veh, GPN3 / RFU, C9orf123 / Fold change vs veh, C9orf123 / RFU, N4BP2L2 / Fold change vs veh, N4BP2L2 / RFU, ARFIP1 / Fold change vs veh, ARFIP1 / RFU, FAM179B / Fold change vs veh, FAM179B / RFU, BCL10 / Fold change vs veh, BCL10 / RFU, UHRF1BP1L / Fold change vs veh, UHRF1BP1L / RFU, BET1 / Fold change vs veh, BET1 / RFU, CNOT2 / Fold change vs veh, CNOT2 / RFU, ZNF268 / Fold change vs veh, ZNF268 / Fold change vs veh, ZNF507 / RFU, DGCR2 / Fold change vs veh, DGCR2 / RFU, WDSUB1 / Fold change vs veh, WDSUB1 / Fold change vs veh, HSP90B1 /// MIR3652 / RFU, ADSS / Fold change vs veh, ADSS / RFU, GK / Fold change vs veh, GK / RFU, ZNF148 / Fold change vs veh, ZNF148 / RFU, TAF9 / Fold change vs veh, TAF9 / RFU, SLC1A5 / Fold change vs veh, SLC1A5 / RFU, SLMO2 / Fold change vs veh, SLMO2 / RFU, ABCC4 / Fold change vs veh, ABCC4 / RFU, LOC101060439 /// RAP1B / Fold change vs veh, LOC101060439 /// RAP1B / RFU, RFX7 / Fold change vs veh, RFX7 / RFU, GTPBP10 / Fold change vs veh, GTPBP10 / RFU, CNEP1R1 / Fold change vs veh, CNEP1R1 / RFU, BIVM-ERCC5 /// ERCC5 / Fold change vs veh, BIVM-ERCC5 /// ERCC5 / RFU, ILF3 / Fold change vs veh, ILF3 / RFU 11762660_at / Fold change /veh 11762660_at / RFU VCAN (11757783_s_at) / Fold change /veh VCAN (11757783_s_at) / RFU DDX43 (11728927_at) / Fold change /veh DDX43 (11728927_at) / RFU KRT8 (11758188_x_at) / Fold change /veh KRT8 (11758188_x_at) / RFU NKD1 (11759106_at) / Fold change /veh NKD1 (11759106_at) / RFU SRD5A1 (11742802_a_at) / Fold change /veh SRD5A1 (11742802_a_at) / RFU TPSAB1 /// TPSB2 (11721975_s_at) / Fold change /veh TPSAB1 /// TPSB2 (11721975_s_at) / RFU GSTM3 (11746129_a_at) / Fold change /veh GSTM3 (11746129_a_at) / RFU IL23R (11737362_x_at) / Fold change /veh IL23R (11737362_x_at) / RFU TMEM51 (11727254_a_at) / Fold change /veh TMEM51 (11727254_a_at) / RFU PIWIL2 (11732686_x_at) / Fold change /veh PIWIL2 (11732686_x_at) / RFU ORM1 (11744905_x_at) / Fold change /veh ORM1 (11744905_x_at) / RFU CCDC152 (11743942_at) / Fold change /veh CCDC152 (11743942_at) / RFU ECM1 (11717891_a_at) / Fold change /veh ECM1 (11717891_a_at) / RFU IL23R (11748794_a_at) / Fold change /veh IL23R (11748794_a_at) / RFU TNFAIP8L3 (11732012_x_at) / Fold change /veh TNFAIP8L3 (11732012_x_at) / RFU MBOAT4 (11741988_at) / Fold change /veh MBOAT4 (11741988_at) / RFU 11764193_at / Fold change /veh 11764193_at / RFU TMEM53 (11763286_at) / Fold change /veh TMEM53 (11763286_at) / RFU MAGEB2 (11727129_at) / Fold change /veh MAGEB2 (11727129_at) / RFU TMEM200A (11744735_a_at) / Fold change /veh TMEM200A (11744735_a_at) / RFU CCDC152 (11751479_a_at) / Fold change /veh CCDC152 (11751479_a_at) / RFU FAM211A (11726209_a_at) / Fold change /veh FAM211A (11726209_a_at) / RFU RGS16 (11746705_a_at) / Fold change /veh RGS16 (11746705_a_at) / RFU VCAN (11755009_s_at) / Fold change /veh VCAN (11755009_s_at) / RFU RHOB (11743442_s_at) / Fold change /veh RHOB (11743442_s_at) / RFU RGS16 (11720943_a_at) / Fold change /veh RGS16 (11720943_a_at) / RFU RGS16 (11720944_at) / Fold change /veh RGS16 (11720944_at) / RFU, VPS4B / Fold change vs veh, VPS4B / RFU, CREB1 / Fold change vs veh, CREB1 / RFU, DNAJC13 / Fold change vs veh, DNAJC13 / RFU, GNAQ / Fold change vs veh, GNAQ / RFU, CDK5R1 / Fold change vs veh, CDK5R1 / RFU, ZRANB3 / Fold change vs veh, ZRANB3 / RFU, CUL4A / Fold change vs veh, CUL4A / RFU, CCNY / Fold change vs veh, CCNY / RFU, UFL1 / Fold change vs veh, UFL1 / RFU, COG3 / Fold change vs veh, COG3 / RFU, DIAPH2 / Fold change vs veh, DIAPH2 / RFU, SKA2 / Fold change vs veh, SKA2 / RFU, AFF3 / Fold change vs veh, AFF3 / RFU, LMF1 / Fold change vs veh, LMF1 / RFU, IPO11 / Fold change vs veh, IPO11 / RFU, DFFB / Fold change vs veh, DFFB / RFU, FOXP1 / Fold change vs veh, FOXP1 / RFU, CARD8 / Fold change vs veh, CARD8 / RFU, STRN3 / Fold change vs veh, STRN3 / RFU, ADK / Fold change vs veh, ADK / RFU, RASSF2 / Fold change vs veh, RASSF2 / RFU, WIPF1 / Fold change vs veh, WIPF1 / RFU, LARP1B / Fold change vs veh, LARP1B / RFU, RASA1 / Fold change vs veh, RASA1 / RFU, RB1 / Fold change vs veh, RB1 / RFU, PPFIA1 / Fold change vs veh, PPFIA1 / RFU, MAT2A / Fold change vs veh, MAT2A / RFU, CCT5 / Fold change vs veh, CCT5 / RFU, WDR92 / Fold change vs veh, WDR92 / RFU, CUX1 / Fold change vs veh, CUX1 / RFU, TTC7A / Fold change vs veh, TTC7A / RFU, TMEM135 / Fold change vs veh, TMEM135 / RFU, DEPTOR / Fold change vs veh, DEPTOR / RFU, CPM / Fold change vs veh, CPM / RFU, DNAJB6 / Fold change vs veh, DNAJB6 / RFU, CACNA2D3 / Fold change vs veh, CACNA2D3 / RFU, DTX4 / Fold change vs veh, DTX4 / RFU, TFCP2 / Fold change vs veh, TFCP2 / RFU, GMCL1 /// GMCL1P1 / Fold change vs veh, GMCL1 /// GMCL1P1 / RFU, AEBP2 / Fold change vs veh, AEBP2 / RFU, SNHG1 /// SNORD22 /// SNORD25 /// SNORD26 /// SNORD27 /// SNORD28 /// SNORD29 /// SNORD31 / Fold change vs veh, SNHG1 /// SNORD22 /// SNORD25 /// SNORD26 /// SNORD27 /// SNORD28 /// SNORD29 /// SNORD31 / Fold change (Aza/veh), C12orf56 (ProbeSet 11735607_a_at) / Fold change (ACY-1035/veh), C12orf56 (ProbeSet 11735607_a_at) / Fold change (Aza/veh), FGFR1OP (ProbeSet 11751329_s_at) / Fold change (ACY-1035/veh), FGFR1OP (ProbeSet 11751329_s_at) / Fold change (Aza/veh), VPS36 (ProbeSet 11739960_a_at) / Fold change (ACY-1035/veh), VPS36 (ProbeSet 11739960_a_at) / RFU SYPL1 (11715823_x_at) / Fold change /veh SYPL1 (11715823_x_at) / RFU IGFBP7 (11715501_s_at) / Fold change /veh IGFBP7 (11715501_s_at) / RFU REEP3 (11722064_at) / Fold change /veh REEP3 (11722064_at) / RFU IGLL1 (11728026_x_at) / Fold change /veh IGLL1 (11728026_x_at): dose or concentration left out as unconfirmed
Conditions: ProbeSet 11723930_at; LIST D

In the case of `Nc1ncn([C@@H]2O[C@H](CO)[C@@H](O)[C@H]2O)c(=O)n1` [azacitidine], the “Fold change vs veh, CCT5” value is reported as 0.69.
